Some results are limits rather than exact numbers.

We go through 28 compounds from ChEMBL document CHEMBL3608212, “Design, synthesis, and in vivo activity of novel inhibitors of delta-5 desaturase for the treatment of metabolic syndrome” (Bioorg Med Chem Lett, 2015).

Data set [1] concerns the target T1, Acyl-CoA (8-3)-desaturase (Homo sapiens, UniProt O60427). Nature of the data set: Inhibition of liver delta-5 desaturase (unknown origin).
Target sequence in this assay (O60427 whole entry): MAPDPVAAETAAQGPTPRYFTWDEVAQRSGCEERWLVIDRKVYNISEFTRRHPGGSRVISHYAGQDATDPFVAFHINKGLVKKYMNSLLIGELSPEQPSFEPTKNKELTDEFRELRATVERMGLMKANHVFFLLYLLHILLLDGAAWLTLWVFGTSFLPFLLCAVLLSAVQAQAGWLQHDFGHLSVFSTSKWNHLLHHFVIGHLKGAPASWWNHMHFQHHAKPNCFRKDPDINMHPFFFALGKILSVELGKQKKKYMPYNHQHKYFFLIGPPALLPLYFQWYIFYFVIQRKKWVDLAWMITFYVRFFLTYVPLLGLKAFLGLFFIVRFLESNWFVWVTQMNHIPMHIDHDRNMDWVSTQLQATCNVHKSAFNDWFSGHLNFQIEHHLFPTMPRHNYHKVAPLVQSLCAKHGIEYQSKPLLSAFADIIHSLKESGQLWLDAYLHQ
Data set [2] is described as follows: Plasma concentration in mouse at 30 mg/kg, po after 0.5 hrs by LC/MS-MS analysis. It is filed as ADME, organism-based.
Data set [3] is described as follows: Plasma concentration in mouse at 60 mg/kg, po after 0.5 hrs by LC/MS-MS analysis. The class given is ADME, organism-based.
The nature of data set [4]: Ratio of plasma concentration in mouse at 30 mg/kg, po after 0.5 hrs to IC50 for liver delta-5 desaturase (unknown origin). It is filed as ADME, organism-based. The conditions noted are these: in vivo.
The nature of data set [5]: Ratio of plasma concentration in mouse at 60 mg/kg, po after 0.5 hrs to IC50 for liver delta-5 desaturase (unknown origin). It is filed as ADME, organism-based. The conditions noted are these: in vivo.
In data set [6] the test system is Mus musculus. Nature of the data set: In vivo inhibition of delta-5 desaturase in mouse liver assessed as conversion of [14C]-DGLA to [14C]-arachidonic acid at 30 mg/kg, po after 2.5 hrs by TLC analysis relative to control. It is filed as functional.
The test system of data set [7] is Mus musculus. Nature of the data set: In vivo inhibition of delta-5 desaturase in mouse liver assessed as conversion of [14C]-DGLA to [14C]-arachidonic acid at 60 mg/kg, po after 2.5 hrs by TLC analysis relative to control. The class given is functional.
Data set [8] deals with T1, Acyl-CoA (8-3)-desaturase. Nature of the data set: Inhibition of liver delta-5 desaturase (unknown origin) at 1 uM.
Target sequence in this assay (O60427 whole entry, looked up): as the sequence (O60427 whole entry) above

In turn, `Cc1ccc2[nH]nc(Nc3cccc(Cl)c3)c2c1` yielded an IC50 in data set [1] of 0.006 µM.
`COc1ccc2[nH]nc(Nc3cccc(Cl)c3)c2c1` came in with an IC50 in data set [1] of 0.008 µM. Also, the concentration at 0.5 h was 5.21 µM in data set [2] and 14 µM in data set [3]. Also, the Ratio worked out at 652 in data set [4] and 1753 in data set [5]. The inhibition in vivo at 30 mg/kg in the data set on Mus musculus [6] was determined as 75%. For the same compound, the inhibition in vivo at 60 mg/kg in the data set with Mus musculus [7] was found to be 97%.
With `Fc1ccc2[nH]nc(Nc3cccc(Cl)c3)c2c1`, it took 0.058 µM to reach half-maximal inhibition in data set [1] (IC50). Moreover, the concentration at 0.5 h in data set [2] is 14.1 µM. Further, the Ratio in data set [4] came out at 242. For the same compound, the inhibition in vivo at 30 mg/kg in the data set with Mus musculus [6] was 49%.
`Nc1ccccc1C(=O)Nc1ccc(F)c(Cl)c1` came in with an IC50 in data set [1] of 0.155 µM.
With `Clc1cccc(NC2CCc3ccccc32)c1` (stereo not drawn), inhibition in data set [1] was half-maximal at 0.173 µM (IC50).
As to `Clc1cccc(Nc2ccnc3ccccc23)c1`, 0.018 µM corresponded to half-maximal inhibition in data set [1] (IC50).
On the same count and under the same terms, next, `Clc1cccc(Nc2n[nH]c3ccc(Br)cc23)c1`: 0.021 µM.
For `Nc1ccccc1C(=O)Nc1cccc(Cl)c1`, the IC50 in data set [1] amounted to 0.058 µM.
On to `Clc1cccc(Nc2cccc3ccccc23)c1`, for which the IC50 in data set [1] was determined as 0.017 µM.
In data set [1], `Clc1cccc(Nc2ncnc3ccsc23)c1` came in with an IC50 of 0.05 µM.
For `Clc1cccc(Nc2nccc3occc23)c1`, in data set [1], 0.371 µM corresponded to half-maximal inhibition (IC50).
In turn, `Clc1cccc(Nc2n[nH]c3ccc(Cl)cc23)c1` returned an IC50 in data set [1] of 0.005 µM.
Regarding `Nc1ccccc1C(=O)Nc1cc(Cl)cc(Cl)c1`, in data set [1], 0.245 µM corresponded to half-maximal inhibition (IC50).
`Nc1ccccc1C(=O)Nc1cccc(F)c1`: in data set [1], inhibition was half-maximal at 0.516 µM (IC50).
In data set [8], `Nc1ccccc1C(=O)Nc1ccccc1Cl` yielded an inhibition of 39%.
As for `COc1ccc(O)c(C(=O)Nc2cccc(Cl)c2)c1`, the IC50 in data set [1] stood at 0.015 µM.
As for `FC(F)(F)c1ccc2[nH]nc(Nc3cccc(Cl)c3)c2c1`, the IC50 in data set [1] stood at 0.254 µM.
`Clc1cccc(Nc2ncnc3ccccc23)c1`: in data set [1], the IC50 was determined as 0.011 µM.
In data set [1], `Fc1cccc(Nc2n[nH]c3ccccc23)c1` gave an IC50 of 0.059 µM. The compound further showed a concentration at 0.5 h in data set [2] of 9.45 µM. Besides, the Ratio in data set [4] worked out at 160. Besides, the inhibition in vivo at 30 mg/kg in the data set on Mus musculus [6] came out at 18%.
In data set [1], `Nc1ccc(F)cc1C(=O)Nc1cccc(Cl)c1` had an IC50 of 0.067 µM.
In data set [1], `CC(C)c1cccc(NC(=O)c2ccccc2N)c1` had an IC50 of 0.843 µM.
In data set [1], `Nc1ccc(Cl)cc1C(=O)Nc1cccc(Cl)c1` had an IC50 of 0.034 µM.
In data set [1], `O=C(Nc1cccc(Cl)c1)c1ccccc1O` displayed an IC50 of 0.174 µM.
Regarding `CCOc1ccc(O)c(C(=O)Nc2cccc(Cl)c2)c1`, the IC50 in data set [1] stood at 0.925 µM.
`Clc1cccc(Nc2n[nH]c3ccccc23)c1` gave an IC50 in data set [1] of 0.084 µM. The compound also displayed a concentration at 0.5 h in data set [2] of 12.7 µM. For the same compound, the Ratio in data set [4] was 151. The inhibition in vivo at 30 mg/kg with Mus musculus [6] was 42%.
The compound `Clc1cccc(Nc2ncnc3sccc23)c1` came in with an IC50 in data set [1] of 0.26 µM.
In the case of `FC(F)(F)Oc1ccc2[nH]nc(Nc3cccc(Cl)c3)c2c1`, the IC50 in data set [1] was > 3 µM.
As to `Nc1ccccc1C(=O)Nc1ccc(Cl)cc1`, in data set [8], the inhibition was determined as 36%.

The IC50 is the concentration that gives 50% inhibition. As a reminder, the inhibition in vivo is the drop in the measured response relative to a control, in per cent. As a reminder, the inhibition is the change of the read-out against control, counted positive when it falls. A higher inhibition goes with a response far below the control.
